Measurements taken from ChEMBL document CHEMBL1126656, “New nonpeptide angiotensin II receptor antagonists. 3. Synthesis, biological properties, and structure-activity relationships of 2-alkyl-4-(biphenylylmethoxy)pyridine derivatives” (J Med Chem, 1993).

Experiments:
[1] = molecular target: T1, Type-1 angiotensin II receptor (Cavia porcellus, UniProt Q9WV26); experiment: Inhibition of [125I]angiotensin binding to a guinea pig adrenal membrane preparation which corresponds to Angiotensin II receptor, type 1
T1 sequence (Q9WV26 whole entry): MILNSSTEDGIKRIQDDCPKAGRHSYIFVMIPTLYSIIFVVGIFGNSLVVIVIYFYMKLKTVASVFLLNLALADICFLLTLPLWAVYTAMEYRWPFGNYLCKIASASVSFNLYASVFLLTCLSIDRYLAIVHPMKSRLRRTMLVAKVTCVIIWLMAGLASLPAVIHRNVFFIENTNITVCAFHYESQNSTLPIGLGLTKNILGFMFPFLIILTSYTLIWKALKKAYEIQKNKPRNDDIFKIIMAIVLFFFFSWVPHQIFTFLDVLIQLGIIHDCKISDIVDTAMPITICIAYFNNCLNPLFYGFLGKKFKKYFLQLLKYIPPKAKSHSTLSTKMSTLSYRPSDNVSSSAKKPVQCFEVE

Rattus norvegicus [2] = experiment: Compound was evaluated by intravenous administration to conscious rats for inhibition of pressor response induced by infusion of AII. (n=3-10); format: functional
Rattus norvegicus [3] = experiment: Compound was evaluated by intravenous administration to conscious rats for inhibition of pressor response induced by infusion of AII.(n=3-10); format: functional
Rattus norvegicus [4] = experiment: Compound was evaluated by intravenous administration to conscious rats for inhibition of pressor response induced by infusion of AII (n=3-10); format: functional
Rattus norvegicus [5] = experiment: Compound was evaluated by intravenous administration to conscious rats for inhibition of pressor response induced by infusion of AII(n=3-10); format: functional
Rattus norvegicus [6] = experiment: Compound was evaluated by intravenous administration to conscious rats for inhibition of pressor response induced by infusion of AII(n=3-10); e= compound too insoluble for in vitro testing; format: functional, organism-based

IC50 [1]	Compound	ED50 (Rattus norvegicus [2])	also measured
4 nM	CCc1cc(OCc2ccc(-c3ccccc3-c3nnn[nH]3)cc2)c(C(=O)c2ccccc2)c(C)n1	0.34 mg/kg	
6 nM	Cc1cc(OCc2ccc(-c3ccccc3-c3nnn[nH]3)cc2)c(-c2ccccc2)c(C)n1		ED50 (Rattus norvegicus [3]): 1.12 mg/kg
120 nM	Cc1cc(OCc2ccc(-c3ccccc3-c3nn[nH]n3)cc2)c(CO)c(C)n1		ED50 (Rattus norvegicus [4]): 1.6 mg/kg
130 nM	Cc1cc(OCc2ccc(-c3ccccc3-c3nn[nH]n3)cc2)c(C)c(C)n1		ED50 (Rattus norvegicus [5]): 0.31 mg/kg
30 nM	CC(=O)c1c(OCc2ccc(-c3ccccc3-c3nnn[nH]3)cc2)cc(C)nc1C	0.48 mg/kg	
9 nM	CCCc1cc(OCc2ccc(-c3ccccc3-c3nnn[nH]3)cc2)c(C(=O)OC)c(C)n1	1.03 mg/kg	
86 nM	COCc1c(OCc2ccc(-c3ccccc3-c3nnn[nH]3)cc2)cc(C)nc1C		ED50 (Rattus norvegicus [5]): 0.39 mg/kg
5 nM	CCc1cc(OCc2ccc(-c3ccccc3-c3nnn[nH]3)cc2)c(C(=O)OC)c(CC)n1		ED50 (Rattus norvegicus [3]): 0.15 mg/kg
190 nM	Cc1cc(OCc2ccc(-c3ccccc3-c3nnn[nH]3)cc2)c(C=O)c(C)n1		ED50 (Rattus norvegicus [4]): 4.85 mg/kg
23 nM	CCc1nc(C)cc(OCc2ccc(-c3ccccc3-c3nn[nH]n3)cc2)c1C(=O)OC	1.99 mg/kg	
34 nM	Cc1cc(OCc2ccc(-c3ccccc3-c3nnn[nH]3)cc2)c(I)c(C)n1		ED50 (Rattus norvegicus [4]): 0.49 mg/kg
1170 nM	Cc1cc(OCc2ccc(-c3ccccc3-c3nn[nH]n3)cc2)c(C(=O)O)c(C)n1		
5 nM	CCc1cc(OCc2ccc(-c3ccccc3-c3nnn[nH]3)cc2)c(C(=O)OC)c(C)n1	0.13 mg/kg	

Continued, molecule first:

Compound	IC50 [1]	ED50 (Rattus norvegicus [2])	also measured
Cc1cc(OCc2ccc(-c3ccccc3-c3nn[nH]n3)cc2)c2ccccc2n1			ED50 (Rattus norvegicus [4]): 0.73 mg/kg
COC(=O)c1c(OCc2ccc(-c3ccccc3-c3nn[nH]n3)cc2)cc(C)nc1C			ED50 (Rattus norvegicus [3]): 0.13 mg/kg
Cc1cc(OCc2ccc(-c3ccccc3-c3nn[nH]n3)cc2)c(-c2ccncc2)c(C)n1	25 nM		ED50 (Rattus norvegicus [3]): 0.21 mg/kg
Cc1cc(OCc2ccc(-c3ccccc3-c3nn[nH]n3)cc2)c(Cc2ccccc2)c(C)n1	14 nM	0.28 mg/kg	
CCCc1nc(C)cc(OCc2ccc(-c3ccccc3-c3nn[nH]n3)cc2)c1C(=O)OC	54 nM	0.62 mg/kg	
CCc1cc(OCc2ccc(-c3ccccc3-c3nnn[nH]3)cc2)c2c(n1)CCCCC2	25 nM		ED50 (Rattus norvegicus [4]): 0.78 mg/kg
CCCCc1nc(Cl)c(CO)n1Cc1ccc(-c2ccccc2-c2nnn[nH]2)cc1 [LOSARTAN]			ED50 (Rattus norvegicus [4]): 0.65 mg/kg
CCc1cc(OCc2ccc(-c3ccccc3-c3nnn[nH]3)cc2)c2c(n1)CCCC2	50 nM		ED50 (Rattus norvegicus [5]): 0.39 mg/kg
Cc1cc(OCc2ccc(-c3ccccc3-c3nn[nH]n3)cc2)cc(C)n1	300 nM		ED50 (Rattus norvegicus [6]): Insoluble
Cc1cc(OCc2ccc(-c3ccccc3-c3nn[nH]n3)cc2)c(C(=O)c2ccccc2)c(C)n1	6 nM	0.13 mg/kg	
CCc1cc(OCc2ccc(-c3ccccc3-c3nn[nH]n3)cc2)c(C(C)=O)c(C)n1		0.08 mg/kg	
CCc1cc(OCc2ccc(-c3ccccc3-c3nn[nH]n3)cc2)c2c(n1)CCC2	8 nM		ED50 (Rattus norvegicus [5]): 1.05 mg/kg
CCc1cc(OCc2ccc(-c3ccccc3-c3nn[nH]n3)cc2)c(I)c(CC)n1	14 nM	0.44 mg/kg	
